Test results reported in US20110152166A1, “METHOD OF MODULATION OF PROTEIN PHOSPHORYLATION-DEPENDENT CONFORMATIONAL TRANSITIONS WITH LOW MOLECULAR WEIGHT COMPOUNDS” (priority 2006, published 2011).
Ends that are not written are not given here.

Columns and labels:
[1] = molecular target: T1, PDK1 (Homo sapiens, UniProt O15530); conditions: in the presence of PIFtide (Biondi et al., 2000); cited from earlier work
T1 sequence (O15530 1-556): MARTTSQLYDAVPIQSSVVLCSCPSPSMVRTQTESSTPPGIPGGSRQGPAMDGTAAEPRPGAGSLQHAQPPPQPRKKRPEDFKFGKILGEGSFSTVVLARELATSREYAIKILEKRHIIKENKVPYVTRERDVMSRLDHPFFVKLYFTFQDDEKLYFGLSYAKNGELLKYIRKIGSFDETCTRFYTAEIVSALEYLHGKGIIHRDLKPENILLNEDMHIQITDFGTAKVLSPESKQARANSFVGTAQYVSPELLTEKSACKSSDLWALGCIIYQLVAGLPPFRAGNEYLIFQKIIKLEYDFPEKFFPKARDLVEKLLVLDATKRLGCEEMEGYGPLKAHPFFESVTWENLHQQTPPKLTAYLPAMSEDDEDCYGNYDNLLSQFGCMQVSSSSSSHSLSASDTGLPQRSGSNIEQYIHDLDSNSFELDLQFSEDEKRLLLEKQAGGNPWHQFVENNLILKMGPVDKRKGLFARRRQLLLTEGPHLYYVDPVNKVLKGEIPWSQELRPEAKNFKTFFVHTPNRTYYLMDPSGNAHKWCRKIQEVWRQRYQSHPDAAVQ

[2] = molecular target: T2, PDK1[Val127Leu] activation of SGK1 [Ser422Asp] (Homo sapiens, UniProt O15530, V127L); assay: SGK activation by PDK1[Val127Leu] in vitro; type: biochemical; conditions: compound 60 μM
T2 construct: GST (N); made in house; host or cells: HEK293
Description: FIG. 4—Small compounds designed to bind the HM/PIF-pocket of PDK1 can block the PDK1-dependent phosphorylation and activation of substrates that require docking to the HM/PIF-pocket of PDK1. (A) Effect of compound 1 (100 and 200 μM) on PDK1 phosphorylation of its substrate S6K1. The phosphorylation reaction was performed in vitro with [γ^32P]ATP and then separated on SDS-PAGE followed by exposure to phosphorimager. The radioactive band corresponding to phosphorylated GST-56K1-T2[Thr412Glu] (S6K[412E]) is indicated. (B) PDK1 or PDK1[Val127Leu] (PDK1[V127L]) were pre-incubated with GST-[…]N-SGK1 [Ser422Asp] […] (C) The activity of S6K was measured in vitro after glutathione sepharose purification; aliquots of purified proteins were separated on SDS-PAGE and the level of activation loop phosphorylation was visualized by immunoblotting using phospho-specific antibodies that recognize the phosphorylated activation loop, followed by stripping of the membranes and re-probing with anti-GST to verify the presence of equal amounts of protein. (D) Cells overexpressing GST-56K1-T2[Thr412Glu] were treated as in (C) but S6K activity was measured in vitro after immunoprecipitation of the GST-fusion protein with anti-GST antibodies; the level of S6K expression was analysed by western-blotting of crude extracts. […]

T2 sequence (O15530 whole entry V127L): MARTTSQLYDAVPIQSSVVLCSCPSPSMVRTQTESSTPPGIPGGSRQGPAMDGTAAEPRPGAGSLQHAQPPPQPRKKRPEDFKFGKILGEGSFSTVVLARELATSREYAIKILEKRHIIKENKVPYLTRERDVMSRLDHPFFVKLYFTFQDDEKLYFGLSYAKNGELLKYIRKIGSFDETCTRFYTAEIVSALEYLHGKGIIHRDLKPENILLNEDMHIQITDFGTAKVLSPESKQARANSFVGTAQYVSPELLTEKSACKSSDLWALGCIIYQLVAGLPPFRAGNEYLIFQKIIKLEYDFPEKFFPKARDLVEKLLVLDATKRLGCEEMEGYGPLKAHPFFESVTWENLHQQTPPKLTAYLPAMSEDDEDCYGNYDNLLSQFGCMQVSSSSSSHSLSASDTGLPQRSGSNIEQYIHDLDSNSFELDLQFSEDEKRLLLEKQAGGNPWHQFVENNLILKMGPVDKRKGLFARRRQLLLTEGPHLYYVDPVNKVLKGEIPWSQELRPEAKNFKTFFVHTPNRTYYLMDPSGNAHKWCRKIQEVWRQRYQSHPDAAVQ

SGK activation by PDK1[Val127Leu] (in words) [2] | Molecule | increase of PDK1 stability to temperature [1] [°C]
 | REPRILSEEEQEMFRDFDYIADWC [PIFtide, reference compound] | 10
not inhibited | O=C(O)CSC(CC(=O)c1ccc(Cl)cc1)c1ccccc1 (centres unmarked) [Compound 1] | 
